One data set is described as follows: Kinetic solubility assay. The format is physicochemical. The conditions noted are these: pH 6.5 PBS buffer, HPLC; for solubility: PBS buffer pH 6.5, aqueous buffer, thermodynamic from solid, read-out: Solubility (pH 6.5, μg/mL). How it is done:
Representative Compounds of the Disclosure were tested in a solubility assay with pH 6.5 PBS buffer. PBS buffer was prepared by dissolving 4.86 g of potassium dihydrogen phosphate and 5.09 g of disodium hydrogen phosphate dodecahydrate in 1 L of ultrapure water to have final pH value of 6.5. In the solubility assay, 0.5 mg of test sample was dissolved in 1 mL of methanol and the stock solution was transferred into 2 mL EP tube, and evaporated at 50° C. for 3 h. To the tube was added 1 mL of PBS buffer and the mixture was stirred and shaken for 1-2 h. The solution was allowed to stand overnight and then filtered before HPLC analysis. Another 1.5 mg of the sample was dissolved in 3 mL of methanol to prepare a calibration curve with a series of concentration range of 5-500 μM. The solubility of each sample was determined by the measured peak area in HPLC.

Another data set deals with NCI-H929 cells. Briefly: Cell viability assay (NCI-H929 cells), CCK-8. The format is cell-based. The settings on record: Homo sapiens, NCI-H929, 24 h, WST, 5% FBS. How it is done: Cell Viability Assay (NCI-H929 Cells)
NCI-H929 cells were obtained from American Type Culture Collection (ATCC). Cells were maintained in the recommended culture medium (RPMI 1640) with 10% FBS and 0.05 mM BME at 37° C. and an atmosphere of 5% CO2.
The effect of Compounds on cell viability was determined using Cell Counting Kit-8 (CCK-8) assay according to the manufacturer's instructions. 95 μL of NCI-H929 cell suspension (20000 cells/well) in culture medium were seeded into 96-well plates and cultured 4 hrs. Each tested compound was serially diluted in DMSO, then 5 μL of the compound or DMSO was diluted in 95 μL medium once more. At last, 5 μL of the compound dilution was added to the corresponding well of the cell plate. After the addition of the tested compound, the cells were incubated at 37° C. in an atmosphere of 5% CO2 for 24 hrs. At the end, 10 μL of CCK-8 solution was added to each well of the plate and incubated for 1-4 hours. The plates were read at 450 nm on the microplate reader (BioTek Synergy 1MF). The readings were normalized to the vehicle cells, and the IC50 was calculated by nonlinear regression analysis using GraphPad Prism 6 software.

The test system of the next data set is OPM-2 cells. Briefly: Cell viability assay (OPM-2 cells), CCK-8. It counts as cell-based. The settings on record: Homo sapiens, OPM-2, 24 h, WST, 5% FBS, read-out: OPM2 (WST, 5% FBS). How it is done: Cell Viability Assay (OPM-2 Cells)
OPM-2 cells were obtained from Deutsche Sammlung von Mikroorganismen und Zellkulturen GmbH (DSMZ). […]
The effect of representative Compounds of the Disclosure on cell viability was determined using Cell Counting Kit-8 (CCK-8) assay (Shanghai Life iLab Bio Technology) according to the manufacturer's instructions. Each tested compound was serially diluted in culture medium, 100 μL of the compound dilution was added into 96-well plates. 100 μL of an OPM-2 cell suspension (20000 cells/well) in culture medium were seeded into the corresponding well of the plate and the cells were incubated at 37° C. in an atmosphere of 5% CO2 for 24 hours. In the next day, 20 μL of CCK-8 solution was added to each well of the plate and incubated for 4 hours.
The plates were read at 450 nm on the microplate spectrophotometer (SpectraMax plus 384, Molecular devices). The readings were normalized to the vehicle cells, and the IC50 was calculated by nonlinear regression analysis using GraphPad Prism 6 software.

In data set [1] the target is T1, Mcl-1 protein (residues 171-323) (Homo sapiens, UniProt Q07820).
T1 construct: Tag-free Mcl-1 protein (residues 171-323) was used in the FP assay
Briefly: Inhibition of Mcl-1 by fluorescence polarization (FP) competitive binding assay. The conditions noted are these: FAM-Bid tracer 2 nM, Mcl-1 20 nM, 30 min. How it is done:
Inhibition of Mcl-1 by Fluorescence Polarization (FP) Assay.
The method used a fluorescein labelled peptide (FAM-Bid) which binds to the Mcl-1 protein leading to an increased anisotropy measured in milli-polarization (mP) values using a plate reader.
A 10-points serial dilution of each compound was prepared in DMSO and 5 μL solution was transferred into flat bottomed, 96-well back plate (final DMSO concentration 5%). 120 μL of Buffer (PBS, 0.01% BGG (Sigma Cat. #SRE0011), 0.01% Triton X-100), containing the Fluorescein labelled peptide (Final concentration 2 nM) and Mcl-1 protein (final concentration 20 nM) was then added. […] 10-points dose response curves were plotted with GraphPad software using Sigmoidal Dose-Response Model and the IC50 values were determined by nonlinear regression fitting of the competition curves.

Each structure is given as a SMILES string. Converted amounts (≈) assume the structure as drawn.

T1 sequence (Q07820 171-323): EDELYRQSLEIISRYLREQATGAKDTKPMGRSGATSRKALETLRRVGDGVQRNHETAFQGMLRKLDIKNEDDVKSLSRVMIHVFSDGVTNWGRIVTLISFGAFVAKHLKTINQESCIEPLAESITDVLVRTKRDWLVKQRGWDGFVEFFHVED

With `Cn1nc2cc1CSc1cc(c3ccc(F)cc3c1)OCCCc1c(C(=O)O)n(C)c3c(c(Cl)ccc13)-c1c(nn3c1COCC3)CSC2` (atropisomer, axis not shown) [compound 39, (S)-(Z)-1^6-chloro-9^6-fluoro-1^1,6^1-dimethyl-26,27-dihydro-1^1H,2^4H,6^1H-10-oxa-4,8-dithia-2(3,2)-pyrazolo[5,1-c][1,4]oxazina-1(7,3)-indola-6(3,5)-pyrazola-9(3,1)-naphthalenacyclotridecaphane-1^2-carboxylic acid], the “Solubility (pH 6.5, μg/mL)” value in “Kinetic solubility assay” is reported as less than 1 μg/mL.
Same read-out and setting: under `Cn1nc2cc1CSc1cc(c3ccc(F)cc3c1)OCCCc1c(C(=O)O)n(C)c3c(c(Cl)ccc13)-c1c(nn3c1COCC3)CSC2` (atropisomer, axis not shown) [compound 40, (R)-(Z)-1^6-chloro-9^6-fluoro-1^1,6^1-dimethyl-26,27-dihydro-1^1H,2^4H,6^1H-10-oxa-4,8-dithia-2(3,2)-pyrazolo[5,1-c][1,4]oxazina-1(7,3)-indola-6(3,5)-pyrazola-9(3,1)-naphthalenacyclotridecaphane-1^2-carboxylic acid] stands 74 μg/mL.
In the case of `Cc1c2c(nn1C)CSCc1cc(n(C)n1)CSc1cc(c3ccccc3c1)OCCCc1c(C(=O)O)n(C)c3c-2c(Cl)ccc13` [AZD5991, (Z)-1^6-chloro-1^1,2^1,2^5,6^1-tetramethyl-1H,2^1H,6^1H-10-oxa-4,8-dithia-1(7,3)-indola-2(4,3),6(3,5)-dipyrazola-9(3,1)-naphthalenacyclotridecaphane-1^2-carboxylic acid, reference compound], the IC50 with NCI-H929 cells was 47 nM. Besides, in the data set “Kinetic solubility assay”, the solubility is less than 1 µg/mL.
Consider `Cc1nc2sc1CSc1cc(c3ccccc3c1)OCCCc1c(C(=O)O)n(C)c3c(c(Cl)ccc13)-c1c(nn3c1CCC3)CSC2` [compound 5, 1^6-chloro-1^1,6^4-dimethyl-2^5,2^6-dihydro-1^1H,2^4H-10-oxa-4,8-dithia-6(2,5)-thiazola-1(7,3)-indola-2(3,2)-pyrrolo[1,2-b]pyrazola-9(3,1)-naphthalenacyclotridecaphane-1^2-carboxylic acid], for which the IC50 in the data set on NCI-H929 cells stood at 960 nM; with OPM-2 cells it was 973 nM; in data set [1], 11.3 nM. Also, the solubility in the data set “Kinetic solubility assay” was determined as 2 µg/mL (≈ 2.85 µM).
In the same order, the values of `Cn1nc2cc1CSCc1nn3c(c1-c1c(Cl)ccc4c(c(C(=O)O)n(C)c14)CCCOc1cc(cc4ccccc14)SC2)CCC3` [compound 7, (Z)-1^6-chloro-1^1,6^1-dimethyl-2^5,2^6-dihydro-1^1H,2^4H,6^1H-10-oxa-4,8-dithia-1(7,3)-indola-2(3,2)-pyrrolo[1,2-b]pyrazola-6(5,3)-pyrazola-9(3,1)-naphthalenacyclotridecaphane-1^2-carboxylic acid] are 1130 nM, 774 nM, 150 nM and 1 µg/mL (≈ 1.46 µM).
The like results for `Cc1oc2nc1CSc1cc(c3ccccc3c1)OCCCc1c(C(=O)O)n(C)c3c(c(Cl)ccc13)-c1c(nn3c1CCC3)CSC2` [compound 11, (Z)-1^6-chloro-1^1,6^5-dimethyl-2^5,2^6-dihydro-1^1H,2^4H-10-oxa-4,8-dithia-6(2,4)-oxazola-1(7,3)-indola-2(3,2)-pyrrolo[1,2-b]pyrazola-9(3,1)-naphthalenacyclotridecaphane-1^2-carboxylic acid] were, in that order, 3540 nM, greater than 10000 nM, 10.6 nM and less than 1 µg/mL.
In the same order, the values of `Cn1nc2cc1CSc1cc(c3cc(F)ccc3c1)OCCCc1c(C(=O)O)n(C)c3c(c(Cl)ccc13)-c1c(nn3c1COCC3)CSC2` [compound 16, (Z)-1^6-chloro-9^7-fluoro-1^1,6^1-dimethyl-2^6,2^7-dihydro-1^1H,2^4H,6^1H-10-oxa-4,8-dithia-2(3,2)-pyrazolo[5,1-c][1,4]oxazina-1(7,3)-indola-6(3,5)-pyrazola-9(3,1)-naphthalenacyclotridecaphane-1^2-carboxylic acid] are 360 nM, 2400 nM, 20.7 nM and less than 1 µg/mL.
Regarding `Cn1nc2cc1CSc1cc(c3cc(Cl)ccc3c1)OCCCc1c(C(=O)O)n(C)c3c(c(Cl)ccc13)-c1c(nn3c1COCC3)CSC2` [compound 18, (Z)-1^6,9^7-dichloro-1^1,6^1-dimethyl-2^6,2^7-dihydro-1^1H,2^4H,6^1H-10-oxa-4,8-dithia-2(3,2)-pyrazolo[5,1-c][1,4]oxazina-1(7,3)-indola-6(3,5)-pyrazola-9(3,1)-naphthalenacyclotridecaphane-1^2-carboxylic acid], the IC50 stood at 1620 nM with NCI-H929 cells, 3490 nM with OPM-2 cells and 19 nM in data set [1]. The solubility in the data set “Kinetic solubility assay” was less than 1 µg/mL.
Regarding `Cc1c2c(nn1C)CN(S(C)(=O)=O)Cc1cc(n(C)n1)CSc1cc(c3ccc(F)cc3c1)OCCCc1c(C(=O)O)n(C)c3c-2c(Cl)ccc13` [compound 45, (Z)-1^6-chloro-9^6-fluoro-1^1,2^1,2^5,6^1-tetramethyl-4-(methylsulfonyl)-1^1H,2^1H,6^1H-10-oxa-8-thia-4-aza-1(7,3)-indola-2(4,3),6(3,5)-dipyrazola-9(3,1)-naphthalenacyclotridecaphane-1^2-carboxylic acid], the “Solubility (pH 6.5, μg/mL)” value in “Kinetic solubility assay” is listed as greater than 400 μg/mL.
On the same count and under the same terms, in the case of `Cc1c2c(nn1C)CN(S(C)(=O)=O)Cc1cc(n(C)n1)CSc1cc(c3ccc(F)cc3c1)OCCCc1c(C(=O)O)n(C)c3c-2c(Cl)ccc13` [compound 47, (S)-(Z)-1^6-chloro-9^6-fluoro-1^1,2^1,2^5,6^1-tetramethyl-4-(methylsulfonyl)-1^1H,2^1H,6^1H-10-oxa-8-thia-4-aza-1(7,3)-indola-2(4,3),6(3,5)-dipyrazola-9(3,1)-naphthalenacyclotridecaphane-1^2-carboxylic acid] it was less than 1 μg/mL.
On to `Cc1c2c(nn1C)CN(S(C)(=O)=O)Cc1cc(n(C)n1)CSc1cc(c3ccc(F)cc3c1)OCCCc1c(C(=O)O)n(C)c3c-2c(Cl)ccc13` [compound 48, (R)-(Z)-1^6-chloro-9^6-fluoro-1^1,2^1,2^5,6^1-tetramethyl-4-(methylsulfonyl)-1^1H,2^1H,6^1H-10-oxa-8-thia-4-aza-1(7,3)-indola-2(4,3),6(3,5)-dipyrazola-9(3,1)-naphthalenacyclotridecaphane-1^2-carboxylic acid], for which, in the data set “Kinetic solubility assay”, the “Solubility (pH 6.5, μg/mL)” value worked out at 3 μg/mL.
Take `Cn1nc2cc1CSc1cc(c3ccc(F)cc3c1)OCCCc1c(C(=O)O)n(C)c3c(c(Cl)ccc13)-c1c(C(F)F)nn(C)c1CN(S(C)(=O)=O)C2` [compound 51, (Z)-1^6-chloro-2^3-(difluoromethyl)-9^6-fluoro-1^1,2^1,6^1-trimethyl-4-(methylsulfonyl)-1^1H,2^1H,6^1H-10-oxa-8-thia-4-aza-1(7,3)-indola-2(4,5),6(3,5)-dipyrazola-9(3,1)-naphthalenacyclotridecaphane-1^2-carboxylic acid]: the IC50 with NCI-H929 cells turned out to be 110 nM; in the data set with OPM-2 cells it was 152 nM; in data set [1], 19 nM.
